Here are results for six molecules from patent US6740521B2, “High-sensitive detection of environmental pollutants” (priority 2001, dated 2004).

Read-outs that look alike come from different tables or passages of the source.

The assay relates to CHO 2F1813 cells. The assay is classed as cell-based, Chinese hamster.
The mark [1] stands for this setting: 2F1813 strain compared with SV40-promoter control strain 5K95, FIG. 3 to FIG. 6.

On to `[Cd]` [Cadmium], for which the “Induction of the β-galactosidase activity expression” value (shortened to “Induction”) under setting [1] is given as “observed only in the 2F1813 stain”.
For `[Ni]` [Nickel], the “Fluorescence value (β-galactosidase inducing activity)” value was 1.3˜18 RU and the “Induction” value is “observed only in the 2F1813 stain”.
On to Nonylphenol A, for which the “Induction” value under setting [1] is on record as “observed only in the 2F1813 stain”.
For the molecule `C1COCCO1` [1,4-Dioxane], the “Fluorescence value (β-galactosidase inducing activity)” value is given as 0˜27 RU.
For `CCCCC(CC)COC(=O)c1ccccc1C(=O)OCC(CC)CCCC` (stereo not shown) [Di(ethylhexyl)phthalate], the “Induction” value under setting [1] is “observed only in the 2F1813 stain”.
The same measure, in the same setting: with `Clc1ccccc1Cl` [o-Dichlorobenzene] the entry was “observed only in the 2F1813 stain”.
